What was measured:
human TRPA1 = molecular target: T1, human TRPA1 (Homo sapiens, UniProt O75762); test: 45Calcium uptake assay: inhibition of AITC induced cellular uptake of radioactive calcium, human TRPA1 expressing CHO cells; format: cell-based; conditions: AITC 30 μM; for inhibition at 1 µM: 1.0 μM compound, read-out: human TRPA1 Percentage inhibition at 1.0 μM; for inhibition at 10 µM: 10.0 μM compound, read-out: human TRPA1 Percentage inhibition at 10.0 μM; for IC50: class symbols
T1 construct: expressed in transfected cells; host or cells: CHO cells (G-418 selection)
T1 sequence (O75762 whole entry): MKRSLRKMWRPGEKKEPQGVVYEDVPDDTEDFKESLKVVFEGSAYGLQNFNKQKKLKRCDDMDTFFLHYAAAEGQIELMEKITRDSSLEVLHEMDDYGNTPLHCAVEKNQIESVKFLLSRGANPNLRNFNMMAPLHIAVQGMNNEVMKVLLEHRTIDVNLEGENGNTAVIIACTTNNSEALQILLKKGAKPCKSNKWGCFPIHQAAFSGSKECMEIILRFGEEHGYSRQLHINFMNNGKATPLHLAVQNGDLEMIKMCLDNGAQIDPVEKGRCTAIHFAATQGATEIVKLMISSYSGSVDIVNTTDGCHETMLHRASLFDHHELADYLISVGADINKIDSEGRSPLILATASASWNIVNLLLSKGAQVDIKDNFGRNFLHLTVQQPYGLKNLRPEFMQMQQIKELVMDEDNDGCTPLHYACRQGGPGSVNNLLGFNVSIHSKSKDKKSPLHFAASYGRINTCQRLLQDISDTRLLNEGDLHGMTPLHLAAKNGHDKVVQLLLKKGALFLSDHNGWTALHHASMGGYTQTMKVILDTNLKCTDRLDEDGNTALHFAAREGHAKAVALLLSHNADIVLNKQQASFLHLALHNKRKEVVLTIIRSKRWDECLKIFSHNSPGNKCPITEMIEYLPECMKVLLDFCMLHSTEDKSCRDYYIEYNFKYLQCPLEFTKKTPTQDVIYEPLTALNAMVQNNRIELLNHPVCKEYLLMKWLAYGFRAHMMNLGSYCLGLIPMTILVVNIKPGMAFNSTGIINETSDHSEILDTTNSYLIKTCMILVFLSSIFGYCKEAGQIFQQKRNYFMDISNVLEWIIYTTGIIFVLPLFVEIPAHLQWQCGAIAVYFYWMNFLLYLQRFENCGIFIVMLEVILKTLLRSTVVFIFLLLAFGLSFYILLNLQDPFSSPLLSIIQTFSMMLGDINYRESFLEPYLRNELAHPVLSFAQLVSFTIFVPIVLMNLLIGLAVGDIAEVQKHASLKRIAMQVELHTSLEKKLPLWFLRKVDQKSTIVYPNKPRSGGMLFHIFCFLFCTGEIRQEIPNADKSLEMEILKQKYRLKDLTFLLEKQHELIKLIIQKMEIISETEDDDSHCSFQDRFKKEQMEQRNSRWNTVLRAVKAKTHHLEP
In short: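 CHO cells expressing TRPA1 were preincubated 10 min with compound (0.5% DMSO final), then given AITC (30 μM human, 10 μM rat) plus 5 μCi/ml 45Ca2+ for 3 min. Lysate radioactivity measured by scintillation; IC50 obtained by nonlinear regression of % maximal response without antagonist.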

rat TRPA1 = molecular target: T2, rat TRPA1 (Rattus norvegicus, UniProt Q6RI86); test: 45Calcium uptake assay: inhibition of AITC induced cellular uptake of radioactive calcium, rat TRPA1 expressing CHO cells; format: cell-based; conditions: AITC 10 μM; for inhibition at 10 µM: 10.0 μM compound, read-out: rat TRPA1 Percentage inhibition at 10.0 μM; for inhibition at 1 µM: read-out: rat TRPA1 Percentage inhibition; for IC50: class symbols
T2 construct: expressed in transfected cells; host or cells: CHO cells (Zeocin selection)
T2 sequence (Q6RI86 whole entry): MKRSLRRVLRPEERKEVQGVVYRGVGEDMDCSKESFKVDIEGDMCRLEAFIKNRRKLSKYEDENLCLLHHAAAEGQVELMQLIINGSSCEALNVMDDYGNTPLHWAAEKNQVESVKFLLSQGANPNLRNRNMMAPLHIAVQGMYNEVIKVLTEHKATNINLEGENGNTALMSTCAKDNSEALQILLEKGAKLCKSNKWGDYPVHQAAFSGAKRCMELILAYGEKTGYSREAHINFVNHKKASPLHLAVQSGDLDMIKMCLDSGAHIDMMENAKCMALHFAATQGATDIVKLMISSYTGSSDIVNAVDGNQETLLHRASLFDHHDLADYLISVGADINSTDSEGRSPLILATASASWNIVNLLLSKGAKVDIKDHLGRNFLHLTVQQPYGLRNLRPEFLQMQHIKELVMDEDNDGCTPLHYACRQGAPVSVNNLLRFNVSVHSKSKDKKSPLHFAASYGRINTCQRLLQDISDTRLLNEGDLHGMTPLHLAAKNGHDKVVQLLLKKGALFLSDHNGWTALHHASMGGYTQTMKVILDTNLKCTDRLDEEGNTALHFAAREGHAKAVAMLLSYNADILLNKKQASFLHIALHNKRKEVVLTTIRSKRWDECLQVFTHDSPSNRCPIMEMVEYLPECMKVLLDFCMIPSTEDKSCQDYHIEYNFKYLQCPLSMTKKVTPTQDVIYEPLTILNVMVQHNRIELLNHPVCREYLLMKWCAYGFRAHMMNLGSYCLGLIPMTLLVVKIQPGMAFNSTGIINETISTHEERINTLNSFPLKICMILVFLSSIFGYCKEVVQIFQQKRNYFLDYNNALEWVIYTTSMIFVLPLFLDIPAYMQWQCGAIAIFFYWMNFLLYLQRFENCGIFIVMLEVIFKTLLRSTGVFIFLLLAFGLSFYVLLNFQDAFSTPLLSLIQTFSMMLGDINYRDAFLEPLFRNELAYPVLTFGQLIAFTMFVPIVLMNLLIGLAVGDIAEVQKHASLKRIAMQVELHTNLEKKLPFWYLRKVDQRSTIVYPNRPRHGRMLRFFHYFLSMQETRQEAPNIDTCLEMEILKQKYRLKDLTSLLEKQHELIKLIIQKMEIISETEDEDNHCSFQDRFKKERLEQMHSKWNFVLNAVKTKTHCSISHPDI
In short: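 CHO cells expressing rat or human TRPA1 were pre-treated with compound for 10 min, then given AITC (30 μM human, 10 μM rat) plus 5 μCi/ml 45Ca2+ for 3 min; final DMSO 0.5%. Lysate radioactivity was counted by scintillation. IC50 came from nonlinear regression of concentration-response curves as % of maximal response.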

SMILES | inhibition at 1 µM (human TRPA1) | inhibition at 10 µM (human TRPA1) | IC50 (human TRPA1) | inhibition at 10 µM (rat TRPA1) | inhibition at 1 µM (rat TRPA1) | IC50 (rat TRPA1)
Cc1oc2c(c1CC(=O)Nc1nc(-c3ccc(C(F)(F)F)cc3)cs1)c(=O)n(C)c(=O)n2C [Example 50, N1-{4-[4-(Trifluoromethyl)phenyl]-1,3-thiazol-2-yl}-2-(1,3,6-trimethyl-2,4-dioxo-1,2,3,4-tetrahydrofuro[2,3-d]pyrimidin-5-yl)acetamide] | 99.6% | 98.3% | – | 100% | 99.9% | –
Cc1oc2c(c1CC(=O)Nc1nc(-c3cccc(C(F)(F)F)c3)cs1)c(=O)n(C)c(=O)n2C [Example 51, N1-{4-[3-(Trifluoromethyl)phenyl]-1,3-thiazol-2-yl}-2-(1,3,6-trimethyl-2,4-dioxo-1,2,3,4-tetrahydrofuro[2,3-d]pyrimidin-5-yl)acetamide] | 99.8% | 100% | – | 100% | 100% | –
Cc1oc2c(c1CC(=O)Nc1nc(-c3cccc(OC(F)(F)F)c3)cs1)c(=O)n(C)c(=O)n2C [Example 52, N1-{4-[3-(Trifluoromethoxy)phenyl]-1,3-thiazol-2-yl}-2-(1,3,6-trimethyl-2,4-dioxo-1,2,3,4-tetrahydrofuro[2,3-d]pyrimidin-5-yl)acetamide] | 99.1% | 99.2% | – | 100% | 100% | –
Cc1oc2c(c1CC(=O)Nc1nc(-c3ccc(OC(F)(F)F)cc3)cs1)c(=O)n(C)c(=O)n2C [Example 53, N1-{4-[4-(Trifluoromethoxy)phenyl]-1,3-thiazol-2-yl}-2-(1,3,6-trimethyl-2,4-dioxo-1,2,3,4-tetrahydrofuro[2,3-d]pyrimidin-5-yl)acetamide] | 99.7% | 97.3% | – | 100% | 100% | –
Cc1oc2c(c1CC(=O)Nc1nc(-c3cccc(Cl)c3Cl)cs1)c(=O)n(C)c(=O)n2C [Example 55, N1-[4-(2,3-Dichlorophenyl)-1,3-thiazol-2-yl]-2-(1,3,6-trimethyl-2,4-dioxo-1,2,3,4-tetrahydrofuro[2,3-d]pyrimidin-5-yl)acetamide] | 95.8% | 99% | – | 100% | 97.7% | –
Cc1oc2c(c1CC(=O)Nc1nc(-c3cccc(C(F)(F)F)c3F)cs1)c(=O)n(C)c(=O)n2C [Example 61, N1-{4-[2-Fluoro-3-(trifluoromethyl)phenyl]-1,3-thiazol-2-yl}-2-(1,3,6-trimethyl-2,4-dioxo-1,2,3,4-tetrahydrofuro[2,3-d]pyrimidin-5-yl)acetamide] | – | – | < 0.05 µM | – | – | < 0.05 µM
Cc1oc2c(c1CC(=O)Nc1nc(-c3cc(F)cc(C(F)(F)F)c3)cs1)c(=O)n(C)c(=O)n2C [Example 62, N1-{4-[3-Fluoro-5-(trifluoromethyl)phenyl]-1,3-thiazol-2-yl}-2-(1,3,6-trimethyl-2,4-dioxo-1,2,3,4-tetrahydrofuro[2,3-d]pyrimidin-5-yl)acetamide] | – | – | < 0.05 µM | – | – | < 0.05 µM
Cc1oc2c(c1CC(=O)Nc1nc(-c3cc(C(F)(F)F)ccc3F)cs1)c(=O)n(C)c(=O)n2C [Example 63, N1-{4-[2-Fluoro-5-(trifluoromethyl)phenyl]-1,3-thiazol-2-yl}-2-(1,3,6-trimethyl-2,4-dioxo-1,2,3,4-tetrahydrofuro[2,3-d]pyrimidin-5-yl)acetamide] | – | – | 0.05 to 0.1 µM | 99.8% | 97.6% | –
Cc1oc2c(c1CC(=O)Nc1nc(-c3ccc(Cl)c(C(F)(F)F)c3)cs1)c(=O)n(C)c(=O)n2C [Example 64, N1-{4-[4-Chloro-3-(trifluoromethyl)phenyl]-1,3-thiazol-2-yl}-2-(1,3,6-trimethyl-2,4-dioxo-1,2,3,4-tetrahydrofuro[2,3-d]pyrimidin-5-yl)acetamide] | – | – | < 0.05 µM | – | – | < 0.05 µM
Cc1oc2c(c1CC(=O)Nc1nc(-c3cc(Cl)cc(C(F)(F)F)c3)cs1)c(=O)n(C)c(=O)n2C [Example 65, N1-{4-[3-Chloro-5-(trifluoromethyl)phenyl]-1,3-thiazol-2-yl}-2-(1,3,6-trimethyl-2,4-dioxo-1,2,3,4-tetrahydrofuro[2,3-d]pyrimidin-5-yl)acetamide] | – | – | < 0.05 µM | 99.8% | 99.8% | 0.05 to 0.1 µM
Cc1oc2c(c1CC(=O)Nc1nc(-c3ccc(C(F)(F)F)c(Cl)c3)cs1)c(=O)n(C)c(=O)n2C [Example 66, N1-{4-[3-Chloro-4-(trifluoromethyl)phenyl]-1,3-thiazol-2-yl}-2-(1,3,6-trimethyl-2,4-dioxo-1,2,3,4-tetrahydrofuro[2,3-d]pyrimidin-5-yl)acetamide] | 99.4% | 99.8% | – | 98.5% | 99.8% | –
Cc1oc2c(c1CC(=O)Nc1nc(-c3ccc(OC(F)(F)F)c(F)c3)cs1)c(=O)n(C)c(=O)n2C [Example 67, N1-{4-[3-Fluoro-4-(trifluoromethoxy)phenyl]-1,3-thiazol-2-yl}-2-(1,3,6-trimethyl-2,4-dioxo-1,2,3,4-tetrahydrofuro[2,3-d]pyrimidin-5-yl)acetamide] | – | – | < 0.05 µM | – | – | < 0.05 µM
Cc1oc2c(c1CC(=O)Nc1nc(-c3ccc(F)c(OC(F)(F)F)c3)cs1)c(=O)n(C)c(=O)n2C [Example 68, N1-{4-[4-Fluoro-3-(trifluoromethoxy)phenyl]-1,3-thiazol-2-yl}-2-(1,3,6-trimethyl-2,4-dioxo-1,2,3,4-tetrahydrofuro[2,3-d]pyrimidin-5-yl)acetamide] | – | – | < 0.05 µM | – | – | < 0.05 µM
Cc1oc2c(c1CC(=O)Nc1nc(-c3ccc(Cl)c(OC(F)(F)F)c3)cs1)c(=O)n(C)c(=O)n2C [Example 69, N1-{4-[4-Chloro-3-(trifluoromethoxy)phenyl]-1,3-thiazol-2-yl}-2-(1,3,6-trimethyl-2,4-dioxo-1,2,3,4-tetrahydrofuro[2,3-d]pyrimidin-5-yl)acetamide] | – | – | < 0.05 µM | – | – | < 0.05 µM

Second part, the molecule after the results:

inhibition at 1 µM (human TRPA1) | inhibition at 10 µM (human TRPA1) | IC50 (human TRPA1) | inhibition at 10 µM (rat TRPA1) | inhibition at 1 µM (rat TRPA1) | IC50 (rat TRPA1) | SMILES
99.2% | 99.8% | < 0.05 µM | 100% | 86% | < 0.05 µM | Cn1c(=O)c2c(CC(=O)Nc3nc(-c4cc(Cl)c(OCC(F)(F)F)c(Cl)c4)cs3)coc2n(C)c1=O [Example 47, N1-{4-[3,5-Dichloro-4-(2,2,2-trifluoroethoxy)phenyl]-1,3-thiazol-2-yl}2-(1,3-dimethyl-2,4-dioxo-1,2,3,4-tetrahydrofuro[2,3-d]pyrimidin-5-yl)acetamide]
96.6% | 95.1% | < 0.05 µM | 99.2% | 99.6% | < 0.05 µM | Cn1c(=O)c2c(CC(=O)Nc3nc(-c4cc(F)c(OCC(F)(F)F)c(Cl)c4)cs3)coc2n(C)c1=O [Example 48, N1-{4-[3-Chloro-5-fluoro-4-(2,2,2-trifluoroethoxy)phenyl]-1,3-thiazol-2-yl}-2-(1,3-dimethyl-2,4-dioxo-1,2,3,4-tetrahydrofuro[2,3-d]pyrimidin-5-yl)acetamide]
95.6% | 98.3% | < 0.05 µM | 97.7% | 86.6% | < 0.05 µM | Cn1c(=O)c2c(CC(=O)Nc3nc(-c4cc(F)c(OCCC(F)(F)F)c(F)c4)cs3)coc2n(C)c1=O [Example 49, N1-{4-[3,5-Difluoro-4-(3,3,3-trifluoropropoxy)phenyl]-1,3-thiazol-2-yl}-2-(1,3-dimethyl-2,4-dioxo-1,2,3,4-tetrahydrofuro[2,3-d]pyrimidin-5-yl)acetamide]
– | – | < 0.05 µM | – | – | 0.05 to 0.1 µM | Cc1oc2c(c1CC(=O)Nc1nc(-c3ccc(Cl)c(Cl)c3)cs1)c(=O)n(C)c(=O)n2C [Example 54, N1-[4-(3,4-Dichlorophenyl)-1,3-thiazol-2-yl]-2-(1,3,6-trimethyl-2,4-dioxo-1,2,3,4-tetrahydrofuro[2,3-d]pyrimidin-5-yl)acetamide]
– | – | < 0.05 µM | – | – | < 0.05 µM | Cc1oc2c(c1CC(=O)Nc1nc(-c3ccc(F)c(C(F)(F)F)c3)cs1)c(=O)n(C)c(=O)n2C [Example 58, N1-{4-[4-Fluoro-3-(trifluoromethyl)phenyl]-1,3-thiazol-2-yl}-2-(1,3,6-trimethyl-2,4-dioxo-1,2,3,4-tetrahydrofuro[2,3-d]pyrimidin-5-yl)acetamide]
– | – | < 0.05 µM | – | – | 0.05 to 0.1 µM | Cc1oc2c(c1CC(=O)Nc1nc(-c3ccc(C(F)(F)F)c(F)c3)cs1)c(=O)n(C)c(=O)n2C [Example 59, N1-{4-[3-Fluoro-4-(trifluoromethyl)phenyl]-1,3-thiazol-2-yl}-2-(1,3,6-trimethyl-2,4-dioxo-1,2,3,4-tetrahydrofuro[2,3-d]pyrimidin-5-yl)acetamide]
– | – | < 0.05 µM | 99.7% | 99.3% | 0.05 to 0.1 µM | Cc1oc2c(c1CC(=O)Nc1nc(-c3ccc(C(F)(F)F)cc3F)cs1)c(=O)n(C)c(=O)n2C [Example 60, N1-{-4-(2-Fluoro-4-(trifluoromethyl)phenyl]-1,3-thiazol-2-yl}-2-(1,3,6-trimethyl-2,4-dioxo-1,2,3,4-tetrahydrofuro[2,3-d]pyrimidin-5-yl)acetamide]

— patent US20120178766A1, “FUROPYRIMIDINEDIONE DERIVATIVES AS TRPAI MODULATORS” (priority 2009, published 2012)
